Values quoted from earlier work as cited in patent US8097259B2, “Method for prevention and treatment of Alzheimer's disease” (SunWay Biotech Co., Ltd., priority 2007, dated 2012).

Test system: Alzheimer's disease
Settings: Wolozin et al. 2000

## CC[C@H](C)C(=O)O[C@H]1C[C@@H](C)C=C2C=C[C@H](C)[C@H](CC[C@@H]3C[C@@H](O)CC(=O)O3)[C@H]21 [lovastatin]
  results for AD treatment among statins: best results
